Reference: PubChem BioAssay (NCI)
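A five-concentration, 48-hour dose response in 96-well plates underlies each endpoint, interpolated linearly between surrounding concentrations. TGI: concentration producing complete growth inhibition.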

Tests used:
Experiment in all cases: NCI-60 cell line screen, 48 h
[1] = system: NCI-H522 lung
[2] = system: MDA-MB-435
[3] = system: U251 CNS
[4] = system: SF-268 CNS
[5] = system: SNB-19 CNS
[6] = system: SK-MEL-28 melanoma
[7] = system: SN12C renal
[8] = system: EKVX NSCLC
[9] = system: CAKI-1 renal
[10] = system: SW-620 colon
[11] = system: HCC-2998 colon
[12] = system: SF-539 CNS
[13] = system: CCRF-CEM leukemia
[14] = system: BT-549 breast
[15] = system: SR leukemia
[16] = system: NCI-H226 lung
[17] = system: SNB-75 CNS

SMILES	TGI [1]	TGI [2]	TGI [3]	TGI [4]	TGI [5]	TGI [6]	TGI [7]	TGI [8]	TGI [9]	TGI [10]	TGI [11]	TGI [12]	TGI [13]	TGI [14]	TGI [15]	TGI [16]	TGI [17]
Cc1ccc(S(=O)(=O)NNC2(NS(=O)(=O)c3ccc(Cl)cc3)C(Cl)=C(Cl)C(=O)c3ccccc32)cc1 (stereo not drawn)	> 100 µM	36 µM	57.3 µM	29.6 µM	29.8 µM	60.7 µM	31.6 µM	28.9 µM	32.4 µM	76 µM	33.2 µM	48.8 µM	63 µM	29.1 µM			
CC(C)C12C=CC(C)(CC1)n1c(=O)c3cc4ccccc4cc3c(=O)n12 (stereo not drawn)	83.7 µM		> 100 µM	> 100 µM	> 100 µM	> 100 µM	> 100 µM	> 100 µM	> 100 µM	> 100 µM	> 100 µM	> 100 µM	> 100 µM		> 100 µM	> 100 µM	> 100 µM
O=C1[C@@H]2C[C@@H](O)CN2C(=O)c2ccccc2N1CCCO	> 100 µM	> 100 µM	> 100 µM	> 100 µM	> 100 µM	> 100 µM	> 100 µM	> 100 µM		> 100 µM		> 100 µM				> 100 µM	> 100 µM
C/C(=N\NC(=S)NC(C)(C)C)c1ccccn1	> 23.1 µM	> 100 µM	> 85.9 µM	> 87.8 µM	> 100 µM	> 100 µM	> 88.5 µM	> 100 µM	> 100 µM	> 100 µM	> 100 µM	18.1 µM		> 100 µM		16 µM	> 100 µM
CC(C)/C(Cl)=N\OC(=O)Nc1ccc(F)cc1F			32.8 µM	38.9 µM	34.8 µM	25.4 µM	21.1 µM	13.8 µM	34.3 µM	3.31 µM	34 µM	30.6 µM	> 21.7 µM	25.9 µM		29.8 µM	33.6 µM
CCOC(=O)C1(C/C=C\CBr)CCCCCCCCCCC1=O (stereo not drawn)	1.04 µM	29.8 µM	26.1 µM	27.6 µM	36.6 µM	30.7 µM	28.4 µM	34.4 µM	27.2 µM	30.1 µM	30.2 µM	14.8 µM		31.7 µM		16.6 µM	26.9 µM
CC(=O)N(CN1C(=O)CCC1C(=O)O)c1cccc(O)c1 (stereo not drawn)	> 100 µM	> 100 µM	> 100 µM	> 100 µM	> 100 µM	> 100 µM	> 100 µM	> 100 µM	> 100 µM	> 100 µM	> 100 µM	> 100 µM	> 100 µM			> 100 µM	> 100 µM
O=c1oc(-c2ccccc2)c(-c2ccccc2)n1-c1ccc(Br)cc1	62.7 µM	> 100 µM	> 100 µM	> 100 µM	> 100 µM	> 100 µM	> 100 µM	> 100 µM	> 100 µM	> 100 µM		53.8 µM	> 100 µM	> 100 µM		> 100 µM	32.2 µM
C/C(CC1SCCCS1)=C(/C)CC1SCCCS1		> 100 µM		> 100 µM	> 100 µM	> 100 µM	> 100 µM	> 100 µM	> 100 µM	> 100 µM	> 100 µM	> 100 µM	> 100 µM		> 100 µM	> 100 µM	> 100 µM
Cc1ccc(-c2c(C#N)c(N)nc3c2CCS(=O)(=O)c2ccccc2-3)cc1	> 100 µM	> 100 µM	> 100 µM	> 100 µM	> 100 µM	> 100 µM	> 100 µM		> 100 µM	> 100 µM	> 100 µM			> 100 µM		> 100 µM	78.9 µM
CC(C)C1COC(c2cccc(C3=N[C@@H](C(C)C)CO3)n2)=N1 (stereo partly drawn)	> 100 µM		> 100 µM	> 100 µM	> 100 µM	> 100 µM	> 100 µM	> 100 µM	> 100 µM	> 100 µM	> 100 µM	> 100 µM	> 100 µM		> 100 µM	> 100 µM	> 100 µM
CC1(C)OC(=O)C2(O1)C(=O)C1CCCCC12 (stereo not drawn)	> 100 µM	> 100 µM	> 100 µM	> 100 µM	> 100 µM	> 100 µM	> 100 µM	> 100 µM	> 100 µM	> 100 µM	> 100 µM		> 100 µM	> 100 µM		> 100 µM	
O=C1C(=Nc2ccccc2)Oc2cc(O)ccc21	> 100 µM	> 100 µM	> 100 µM	> 100 µM	> 100 µM	> 100 µM	> 100 µM	> 100 µM	> 100 µM	> 100 µM	> 100 µM	> 100 µM	> 100 µM		> 100 µM	> 100 µM	> 100 µM
O=C(/C=C/c1ccc(Cl)cc1)c1cccs1		25.9 µM	29.5 µM	75.9 µM	33.4 µM	54.2 µM	33.2 µM	68 µM	45.2 µM	30.4 µM	37.5 µM	> 100 µM	98.1 µM		50.5 µM	44.5 µM	43.4 µM
O=C1CC(C(=O)N2CCCCC2)n2c(=O)n(-c3ccccc3)c(=O)n2C1 (stereo not drawn)	> 100 µM			> 100 µM	> 100 µM			> 100 µM	> 100 µM		> 100 µM	> 100 µM		> 100 µM		> 100 µM	> 100 µM
COc1ccc(C(=O)N(C(=S)OCCOc2ccccc2)c2ccccc2)cc1	> 100 µM	> 100 µM	> 100 µM	> 100 µM	> 100 µM	> 100 µM	> 100 µM	96.6 µM	> 100 µM	> 100 µM	> 100 µM	> 100 µM	66.3 µM	> 100 µM			27.9 µM
Cc1ccc2c(C)c3ccc4ccccc4c3c[n+]2c1	28.3 µM		23 µM	14.8 µM	40.8 µM	33 µM	24 µM	> 100 µM	> 100 µM	> 82.1 µM	28.6 µM	33.7 µM	46.4 µM		42.8 µM	25.4 µM	25.9 µM
CC(C)(CO)NC(=O)Nc1c(C(F)(F)F)cc(-c2ccccc2)[nH]c1=O	> 100 µM	> 100 µM	> 100 µM	> 100 µM	> 100 µM	> 100 µM	> 100 µM	> 100 µM	> 100 µM	> 100 µM	> 100 µM		> 100 µM	> 100 µM		> 100 µM	
c1ccc(C2OCCO2)c(OCCOc2cc(OCCOc3ccccc3C3OCCO3)c(OCCOc3ccccc3C3OCCO3)cc2OCCOc2ccccc2C2OCCO2)c1			23.9 µM	66.5 µM		> 100 µM	> 100 µM		> 100 µM	> 100 µM		32.7 µM	> 100 µM		> 100 µM	47.3 µM	7.06 µM
C[n+]1cccc2ccc(OC(=O)c3ccccc3)cc21	> 100 µM	> 100 µM		> 100 µM	> 100 µM		> 100 µM	> 100 µM	> 100 µM	> 100 µM		> 100 µM				> 100 µM	> 100 µM
Nc1ncnc2c1cnn2Cc1cn(COCC(O)CO)nn1 (stereo not drawn)	30.8 µM	> 100 µM	> 100 µM	34.9 µM	> 100 µM	> 100 µM	> 100 µM	> 100 µM	> 100 µM	> 100 µM	> 100 µM	> 100 µM	> 100 µM	> 100 µM			
Cn1cnc(N2CCCC2)c(C#N)c1=O	> 100 µM	> 100 µM	> 100 µM	> 100 µM	> 100 µM	> 100 µM	> 100 µM	> 100 µM	> 100 µM	> 100 µM	> 100 µM	> 100 µM	> 100 µM		> 100 µM	> 100 µM	
C=C=C(Sc1ccccc1)C(C)(C)OC(C)=O	29.6 µM		31.6 µM	27.7 µM	40.4 µM	31.4 µM	31.1 µM		90.2 µM	33.7 µM	43.1 µM	29.8 µM	58.7 µM		> 100 µM	45.4 µM	49.8 µM
Clc1nc(NCCc2ccccc2)c2ncn(-c3ccccc3)c2n1	56.4 µM	35.1 µM	48.6 µM	> 100 µM	> 100 µM	94.1 µM	85.4 µM	68.3 µM	34 µM	> 100 µM	45.5 µM			60 µM		58.9 µM	90.4 µM
COc1ccc(-c2cc(=O)c3cc4c(cc3[nH]2)OCO4)cc1			> 100 µM	> 100 µM	> 100 µM	> 100 µM	> 100 µM	41.3 µM		> 100 µM	> 100 µM	> 100 µM	> 100 µM		> 100 µM	> 100 µM	> 100 µM
